{"source": "patent US8877758B2", "about": "“Combinations of medicaments, containing PDE4-inhibitors and EP4-receptor-antagonists” (Boehringer Ingelheim International GmbH, priority 2010, dated 2014)", "key": {"[1]": {"system": "male Wistar rats", "assay": "Experiment 4: four-day oral treatment of rats, roflumilast-mediated effects with or without AH-6809", "assay_type": "in vivo, rat", "protocol": "group 2 (“AH-6809 group”): Six male Wistar rats were given a daily dosage of 10 mg/kg AH-6809 (preferential EP2 antagonist) at 1300 hours."}, "[2]": {"system": "male Wistar rats", "assay": "Experiment 2: four-day oral treatment of rats, roflumilast-mediated effects with or without SC-560 or Lumiracoxib", "assay_type": "in vivo, rat", "source_text": "For pharmacokinetic analysis (determining plasma levels of the substances) one rat from each group was used on day 4; these rats were no longer available for the investigation of other parameters."}, "[3]": {"system": "male Wistar rats", "assay": "Experiment 3: four-day oral treatment of rats, roflumilast-mediated effects with or without MF-498", "assay_type": "in vivo, rat", "conditions": "20 mg/kg MF-498 p.o. at 1300 hours, four days, no roflumilast", "protocol": "group 2 (“MF-498 group”): Six male Wistar rats were given a daily dosage of 20 mg/kg MF-498 (EP4 antagonist) in each case at 1300 hours."}, "[4]": {"system": "male Wistar rats", "assay": "Experiment 3: four-day oral treatment of rats, roflumilast-mediated effects with or without MF-498", "assay_type": "in vivo, rat"}, "[5]": {"system": "male Wistar rats", "assay": "Experiment 1: four-day oral treatment of rats, roflumilast-mediated effects with or without diclofenac", "experimental": "Six male Wistar rats in each group were treated for four days with the following substances (all substances are given p.o.=orally):\nGroup 1 (“control group”): Six male Wistar rats were given a daily dose of 0.5% Natrosol (placebo) at the times 0800, 1300 and 1700 hours.\nGroup 2 (“diclofenac group”): Six male Wistar rats were given a daily dose of 1 mg/kg of diclofenac (NSAID) at the times 0800 and 1700 hours and 0.5% Natrosol (placebo) at 1300 hours.\nGroup 3 (“roflumilast group”): Six male Wistar rats were given a daily dose of 0.5% Natrosol (placebo) at 0800 and 1700 hours and 10 mg/kg roflumilast (PDE4 inhibitor) at 1300 hours.\nGroup 4 (“roflumilast+diclofenac group”): Six male Wistar rats were given a daily dose of 1 mg/kg diclofenac (NSAID) at the times 0800 and 1700 hours and 10 mg/kg roflumilast (PDE4 inhibitor) at 1300 hours.\nFor pharmacokinetic analysis (determining the plasma levels of the substances) on day 4 one rat from each group was used; these rats were no longer available for other parameters under investigation.\nDuring the experiment the body weights of the animals were determined and the differences in the body weights of the rats from the different groups towards the end of the experiment were shown as a percentage change from the time of the first administration (=day 1, 0800 hours (=time t0)). The average±standard deviation of the body weights at time t0 was 355±17 g.\nAt the end of the experiment (day 5, 95 hours after t0 (t0=the time of the first administration on day 1, 0800)) the proportion of neutrophils (in % of white blood cells, FIG. 2) were determined from the blood of 4 or 5 of the rats from the individual groups. In addition, the weights of the animals' spleens were measured and the mesenteries were dissected for histopathological investigation for vasculitis (multifocal perivascular mononuclear/polymorphonuclear infiltration)."}, "[6]": {"conditions": "AH-6809 and 10 mg/kg Roflumilast p.o. at 1300 hours, four days"}, "[7]": {"conditions": "2 mg/kg p.o. at 0800 and 1700 hours + 10 mg/kg Roflumilast at 1300 hours, four days"}, "[8]": {"conditions": "20 mg/kg MF-498 and 10 mg/kg Roflumilast p.o. at 1300 hours, four days"}, "[9]": {"conditions": "10 mg/kg Roflumilast p.o. at 1300 hours for four days, read-out day 5, 95 hours after t0"}, "[10]": {"conditions": "1 mg/kg diclofenac p.o. at 0800 and 1700 hours + 10 mg/kg roflumilast at 1300 hours, four days"}}, "note": "Entries after “also recorded” stand apart in the source; their conditions may differ.", "data": [{"smiles": "CC(C)Oc1ccc2c(=O)c3cc(C(=O)O)ccc3oc2c1", "note": "[AH6809, 6-isopropoxy-9-oxoxanthene-2-carboxylic acid]", "values": [{"measurement": "parameters measured after administration on its own (body weight, spleen weight, neutrophils, mesenteric vasculitis)", "setting": "[1]; 10 mg/kg AH-6809 p.o. at 1300 hours, four days, no roflumilast", "value": "very similar to the control group"}, {"measurement": "influence of co-administration on roflumilast-mediated loss of body weight (FIG. 13)", "setting": "[1]; [6]", "value": "no indications that the EP2 preferential receptor antagonist AH-809 had any influence"}, {"measurement": "influence of co-administration on roflumilast-mediated loss of spleen weight (FIG. 14)", "setting": "[1]; [6]", "value": "no indications that the EP2 preferential receptor antagonist AH-809 had any influence"}, {"measurement": "influence of co-administration on roflumilast-mediated mesenteric vasculitis (monocyte/polymorphonuclear perivascular infiltration, FIG. 16)", "setting": "[1]; [6]", "value": "no indications that the EP2 preferential receptor antagonist AH-809 had any influence"}, {"measurement": "influence of co-administration on roflumilast-mediated neutrophilia (FIG. 15)", "setting": "[1]; [6]", "value": "no indications that the EP2 preferential receptor antagonist AH-809 had any influence"}]}, {"smiles": "Cc1ccc(Nc2c(F)cccc2Cl)c(CC(=O)O)c1", "note": "[Lumiracoxib]", "values": [{"measurement": "effect of co-administration on roflumilast-mediated loss of body weight (FIG. 5)", "setting": "[2]; [7]", "value": "substantially reduced or prevented"}, {"measurement": "effect of co-administration on roflumilast-mediated loss of spleen weight (FIG. 6)", "setting": "[2]; [7]", "value": "substantially reduced or prevented"}, {"measurement": "effect of co-administration on roflumilast-mediated mesenteric vasculitis (monocyte/polymorphonuclear perivascular infiltration, FIG. 8)", "setting": "[2]; [7]", "value": "substantially reduced or prevented"}, {"measurement": "effect of co-administration on roflumilast-mediated neutrophilia (FIG. 7)", "setting": "[2]; [7]", "value": "substantially reduced or prevented"}, {"measurement": "parameters measured after administration on its own (body weight, spleen weight, neutrophils, mesenteric vasculitis)", "setting": "[2]; 2 mg/kg p.o. at 0800 and 1700 hours, four days, no roflumilast", "value": "very similar to the control groups"}]}, {"smiles": "CCOc1c2c(c(OCC)c3ncccc13)CN(c1ccc(CS(=O)(=O)NC(=O)Cc3ccccc3OC)cc1C)C2=O", "note": "[MF-498, N-{[4-(5,9-diethoxy-6-oxo-6,8-dihydro-7H-pyrrolo(3,4-g)quinolin-7-yl)-3-methylbenzyl)sulphonyl}-2-(2-methoxyphenyl)acetamide]", "values": [{"measurement": "parameters measured after administration on its own (body weight, spleen weight, neutrophils, mesenteric vasculitis)", "setting": "[3]", "value": "very similar to the control group"}, {"measurement": "effect of co-administration on roflumilast-mediated loss of body weight (FIG. 9)", "setting": "[4]; [8]", "value": "substantially reduced"}, {"measurement": "effect of co-administration on roflumilast-mediated loss of spleen weight (FIG. 10)", "setting": "[4]; [8]", "value": "substantially reduced"}, {"measurement": "effect of co-administration on roflumilast-mediated mesenteric vasculitis (monocyte/polymorphonuclear perivascular infiltration, FIG. 12)", "setting": "[4]; [8]", "value": "substantially reduced"}, {"measurement": "effect of co-administration on roflumilast-mediated neutrophilia (FIG. 11)", "setting": "[4]; [8]", "value": "substantially reduced"}, {"measurement": "differences in the weight of the spleen between the Roflumilast group and the Roflumilast+MF-498 group (statistics)", "setting": "[4]; 20 mg/kg MF-498 and 10 mg/kg Roflumilast p.o., one animal of the Roflumilast group had an unusually small loss of spleen weight", "value": "do not achieve statistical significance"}]}, {"smiles": "O=C(Nc1c(Cl)cncc1Cl)c1ccc(OC(F)F)c(OCC2CC2)c1", "note": "[Roflumilast]", "values": [{"measurement": "PDE4 inhibitor-mediated side effects observed in the Roflumilast group", "setting": "[2]; [9]", "value": "loss of body weight; also recorded: loss of spleen weight; also recorded: neutrophilia; also recorded: mesenteric vasculitis"}, {"measurement": "PDE4 inhibitor-mediated side effects observed in the Roflumilast group", "setting": "[1]; [9]", "value": "loss of body weight; also recorded: loss of spleen weight; also recorded: neutrophilia; also recorded: mesenteric vasculitis"}, {"measurement": "PDE4 inhibitor-mediated side effects observed in the Roflumilast group", "setting": "[4]; [9]", "value": "loss of body weight; also recorded: loss of spleen weight; also recorded: neutrophilia; also recorded: mesenteric vasculitis"}, {"measurement": "death of animals in the roflumilast group", "setting": "[5]; 10 mg/kg roflumilast p.o. daily, six rats per group", "value": "died between day 4 and day 5"}]}, {"smiles": "O=C(O)Cc1ccccc1Nc1c(Cl)cccc1Cl", "note": "[diclofenac]", "values": [{"measurement": "effect of co-administration on roflumilast-mediated loss of body weight (FIG. 1)", "setting": "[5]; [10]", "value": "substantially reduced or prevented"}, {"measurement": "effect of co-administration on roflumilast-mediated loss of spleen weight (FIG. 2)", "setting": "[5]; [10]", "value": "substantially reduced or prevented"}, {"measurement": "effect of co-administration on roflumilast-mediated mesenteric vasculitis (monocyte/polymorphonuclear infiltration into the mesentery, FIG. 4)", "setting": "[5]; [10]", "value": "substantially reduced or prevented"}, {"measurement": "effect of co-administration on roflumilast-mediated neutrophilia (FIG. 3)", "setting": "[5]; [10]", "value": "substantially reduced or prevented"}, {"measurement": "parameters measured after administration on its own (body weight, spleen weight, neutrophils, mesenteric vasculitis)", "setting": "[5]; 1 mg/kg diclofenac p.o. at 0800 and 1700 hours, four days, no roflumilast", "value": "very similar to the control groups"}]}]}
